The values that follow come from patent publication US9290476B2, “Methylene linked quinolinyl modulators of RORγt” (Janssen Pharmaceutica NV, priority 2012, dated 2016).

As usually defined, the IC50 is the concentration at which inhibition is half-maximal. Broadly, the Kd is the concentration at which binding is half-saturated. The term inhibition denotes the relative decrease from the control value, in per cent.

The target of one experiment is human RORγt LBD (Homo sapiens (Human), UniProt P51449). Description: RORγt reporter assay (GAL4-RORγt LBD luciferase in HEK293T cells). Format: cell-based. The note with it: for RORγt reporter Assay, % inhibition @ 6 μM / IC50: HEK293T cells; for IC50: 24 hours compound treatment; for inhibition at 6 µM: HEK-293T, read-out: RORγt reporter Assay, % inhibition @ 6 μM, HEK293T cells, 6 μM. The method, boiled down:
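HEK293T cells transiently co-transfected with GAL4-DBD–wild-type human RORγt LBD (pBIND) and GAL4-responsive firefly luciferase reporter (pGL4.31); renilla luciferase from pBIND normalises transfection/viability. Cells in phenol-red-free DMEM, 5% lipid-reduced FCS, treated with compound 24 h. Firefly/renilla ratio plotted against compound concentration.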

For experiment [1], the target named is human RORγt ligand binding domain (RORγt LBD) (Homo sapiens (Human), UniProt P51449). Nature of the experiment: RORγt ThermoFluor assay (thermal shift binding affinity). The note with it: estimated from thermal shift. The method, boiled down:
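Thermal shift used 0.065 mg/mL RORγt LBD with 60 μM 1,8-ANS in 100 mM Hepes pH 7.0, 10 mM NaCl, 2.5 mM GSH and 0.002% Tween-20, heated at 1 °C/min. Fluorescence was excited at 380–400 nm and emission read at 500 nm.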

Experiment [2] deals with IL-17 production by CD4 T cells. Description: Human Th17 assay (IL-17 production by CD4 T cells under Th17 differentiation). Format: cell-based. To be noted: human CD4+ T cells, IL-17 after 3 days, read-out: Human Th17 Assay, IC50 μM. The text has this: The human Th17 assay tests the effect of RORγt modulatory compounds on IL-17 production by CD4 T cells under conditions which favor Th17 differentiation.
Total CD4^+ T cells were isolated from the peripheral blood mononuclear cells (PBMC) of healthy donors using a CD4^+ T cell isolation kit II, following the manufacturer's instructions (Miltenyi Biotec). Cells were resuspended in a medium of RPMI-1640 supplemented with 10% fetal bovine serum, penicillin, streptomycin, glutamate, and β-mercaptoethanol and were added to 96-well plates at 1.5×10^5 per 100 μL per well. 50 μL of compound at titrated concentrations in DMSO were added into each well at final DMSO concentration at 0.2%. Cells were incubated for 1 hour, then 50 μL of Th17 cell differentiation medium was added to each well. The final concentrations of antibodies and cytokines (R&D Systems) in differentiation medium were: 3×10^6/mL anti-CD3/CD28 beads (prepared using human T cell activation/expansion kit, Miltenyi Biotec), 10 μg/mL anti-IL4, 10 μg/mL anti-IFNγ, 10 ng/mL IL1β, 10 ng/mL IL23, 50 ng/mL IL6, 3 ng/mL TGFβ and 20 U/mL IL2. Cells were cultured at 37° C. and 5% CO2 for 3 days. Supernatants were collected and the accumulated IL-17 in culture was measured by using MULTI-SPOT® Cytokine Plate following manufacture's instruction (Meso Scale Discovery). The plate was read using Sector Imager 6000, and IL-17 concentration was extrapolated from the standard curve. The IC50s were determined by GraphPad.

Counter-ions that a name gives are not always drawn. Like-named read-outs stand apart in the source and are kept apart here.

Sequence of human RORγt ligand binding domain (RORγt LBD) (P51449 other isoform, or with tags, fused parts or gaps): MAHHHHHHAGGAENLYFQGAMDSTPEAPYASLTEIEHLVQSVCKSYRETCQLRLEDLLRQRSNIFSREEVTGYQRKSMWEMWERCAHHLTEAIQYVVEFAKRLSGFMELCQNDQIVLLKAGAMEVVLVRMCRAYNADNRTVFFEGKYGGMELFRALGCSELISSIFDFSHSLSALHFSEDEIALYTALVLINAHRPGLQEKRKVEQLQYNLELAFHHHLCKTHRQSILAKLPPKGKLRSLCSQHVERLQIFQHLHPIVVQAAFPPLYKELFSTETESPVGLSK
Sequence of human RORγt LBD (P51449 258-518): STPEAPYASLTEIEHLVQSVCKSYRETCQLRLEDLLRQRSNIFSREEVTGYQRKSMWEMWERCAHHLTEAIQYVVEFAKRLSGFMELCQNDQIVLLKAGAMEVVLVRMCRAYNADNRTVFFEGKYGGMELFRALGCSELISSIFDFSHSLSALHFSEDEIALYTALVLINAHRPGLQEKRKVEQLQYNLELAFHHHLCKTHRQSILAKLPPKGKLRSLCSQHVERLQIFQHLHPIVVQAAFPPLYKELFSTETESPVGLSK

Take `Cc1cc(C(O)(c2ccc(C(F)(F)F)nc2)c2cncn2C)cc2c(C#N)c(Cc3ccc(-n4cccn4)cc3)c(C#N)nc12` (single isomer, unassigned) [Example 65C, 3-(4-(1H-pyrazol-1-yl)benzyl)-6-(hydroxy(1-methyl-1H-imidazol-5-yl)(6-(trifluoromethyl)pyridin-3-yl)methyl)-8-methylquinoline-2,4-dicarbonitrile]: at human RORγt LBD, the “RORγt reporter Assay, % inhibition @ 6 μM” value is 100%. The results for the half-maximal inhibitory concentration (IC50) (at human RORγt LBD; in experiment [2]) were 0.046 µM and 0.045 µM, respectively. Further, in experiment [1], the Kd was 0.0042 µM.

For `CCN(CC)c1nc2ccc(C(O)(c3ccc(C(F)(F)F)nc3)c3cncn3C)cc2c(C#N)c1Cc1ccc(-n2cccn2)cc1` (single isomer, unassigned) [Example 74B, 3-(4-(1H-Pyrazol-1-yl)benzyl)-2-(diethylamino)-6-(hydroxy(1-methyl-1H-imidazol-5-yl)(6-(trifluoromethyl)pyridin-3-yl)methyl)quinoline-4-carbonitrile], the concentration for half-maximal inhibition (IC50) on human RORγt LBD came to 0.17 µM; in experiment [2] (Homo sapiens, CD4+ T, 72 h), 0.091 µM. On human RORγt LBD, the inhibition at 6 µM came to 95%. In experiment [1], the Kd is 1.3 µM.

`OC(c1ccc(Cl)cc1)(c1cccnc1)c1ccc2nc(Cl)c(Cc3ccc(-n4cccn4)cc3)c(Cl)c2c1` (stereo not drawn) [Example 45, (3-(4-(1H-Pyrazol-1-yl)benzyl)-2,4-dichloroquinolin-6-yl)(4-chlorophenyl)(pyridin-3-yl)methanol]: on human RORγt LBD, the 50% inhibitory concentration (IC50) stood at 0.13 µM and the inhibition at 6 µM was found to be 103%. Moreover, in experiment [1], the Kd is 0.068 µM. The IC50 in experiment [2] (Homo sapiens, CD4+ T, 72 h) stood at 0.1 µM.

Turning to `COc1nc2ccc(C(O)(c3ccc(C(F)(F)F)nc3)c3cncn3C)cc2c(Cl)c1Cc1ccc(C(F)(F)F)nc1` (single isomer, unassigned) [Example 94C, (4-Chloro-2-methoxy-3-((6-(trifluoromethyl)pyridin-3-yl)methyl)quinolin-6-yl)(1-methyl-1H-imidazol-5-yl)(6-(trifluoromethyl)pyridin-3-yl)methanol], at human RORγt LBD, the “RORγt reporter Assay, % inhibition @ 6 μM” value is recorded as 95%. The IC50 against human RORγt LBD turned out to be 0.16 µM; in experiment [2], 0.048 µM. Further, the Kd in experiment [1] is 0.0065 µM.

For the compound `CCOc1nc2ccc(C(O)(c3cncs3)c3cncn3C)cc2c(Cl)c1Cc1ccc(-n2cccn2)cc1` (stereo not drawn) [Example 16, (3-(4-(1H-Pyrazol-1-yl)benzyl)-4-chloro-2-ethoxyquinolin-6-yl)(1-methyl-1H-imidazol-5-yl)(thiazol-5-yl)methanol.TFA], at human RORγt LBD, the IC50 amounted to 0.038 µM and the inhibition at 6 µM came to 104%. Further, in experiment [1], the dissociation constant Kd is 0.0066 µM. Moreover, in experiment [2] (Homo sapiens, CD4+ T, 72 h), the IC50 amounted to 0.054 µM.

In the case of `COc1nc2ccc(C(O)(c3cnnn3C)C3CN(C(C)=O)C3)cc2c(Cl)c1Cc1ccc(C(F)(F)F)cc1` (single isomer, unassigned) [Example 97C, 1-(3-((4-Chloro-2-methoxy-3-(4-(trifluoromethyl)benzyl)quinolin-6-yl)(hydroxy)(1-methyl-1H-1,2,3-triazol-5-yl)methyl)azetidin-1-yl)ethanone], at human RORγt LBD, the “RORγt reporter Assay, % inhibition @ 6 μM” value is 99% and the IC50 was roughly 0.004 µM. Moreover, in experiment [1], the Kd is 0.00064 µM. Also, the IC50 in experiment [2] was determined as 0.015 µM.

On to `COc1nc2ccc(C(O)(c3ccc(F)cc3)c3cncn3C)cc2c(Cl)c1Cc1ccc(S(C)(=O)=O)cc1` (single isomer, unassigned) [Example 54C, (4-chloro-2-methoxy-3-(4-(methylsulfonyl)benzyl)quinolin-6-yl)(4-fluorophenyl)(1-methyl-1H-imidazol-5-yl)methanol], for which, on human RORγt LBD, the “RORγt reporter Assay, % inhibition @ 6 μM” value turned out to be 93% and half-maximal inhibition (IC50) was put at 0.098 µM. In experiment [1], the Kd was 0.023 µM. For the same compound, the IC50 in experiment [2] (Homo sapiens, CD4+ T, 72 h) came out at 0.057 µM.

For the compound `COc1ccc(C(O)(c2ccc3nc(OC)c(Cc4ccc(-n5cccn5)cc4)c(Cl)c3c2)c2cncs2)cn1` (stereo not drawn) [Example 20A, (3-(4-(1H-Pyrazol-1-yl)benzyl)-4-chloro-2-methoxyquinolin-6-yl)(6-methoxypyridin-3-yl)(thiazol-5-yl)methanol], on human RORγt LBD, the half-inhibitory concentration (IC50) was found to be 0.026 µM and the inhibition at 6 µM came out at 101%. Further, the Kd in experiment [1] was 0.0038 µM. Besides, the IC50 in experiment [2] (Homo sapiens, CD4+ T, 72 h) stood at 0.015 µM.

In the case of `Cc1cc(C(O)(c2ccc(Cl)cc2)c2cncn2C)cc2c(Cl)c(Cc3ccc(-n4cccn4)cc3)c(Cl)nc12` (stereo not drawn) [Example 27, (3-(4-(1H-Pyrazol-1-yl)benzyl)-2,4-dichloro-8-methylquinolin-6-yl)(4-chlorophenyl)(1-methyl-1H-imidazol-5-yl)methanol.TFA salt], at human RORγt LBD, the “RORγt reporter Assay, % inhibition @ 6 μM” value was determined as 97% and the midpoint of inhibition, the IC50, lay at 0.29 µM. In addition, the IC50 in experiment [2] was 0.3 µM.

With `COc1nc2ccc(C(O)(c3cnnn3C)c3cnc(C)n3C)cc2c(Cl)c1Cc1ccc(C(F)(F)F)cc1` (single isomer, unassigned) [Example 80B, (4-chloro-2-methoxy-3-(4-(trifluoromethyl)benzyl)quinolin-6-yl)(1,2-dimethyl-1H-imidazol-5-yl)(1-methyl-1H-1,2,3-triazol-5-yl)methanol], the inhibition at 6 µM at human RORγt LBD came to 92%. For the same compound, the IC50 in experiment [2] worked out at 0.05 µM.

In the case of `Cn1cncc1C(O)(c1ccc(C(F)(F)F)nc1)c1ccc2nc(C#N)c(Cc3ccc(-n4cccn4)cc3)c(C#N)c2c1` (single isomer, unassigned) [Example 72C, 3-(4-(1H-Pyrazol-1-yl)benzyl)-6-(hydroxy(1-methyl-1H-imidazol-5-yl)(6-(trifluoromethyl)pyridin-3-yl)methyl)quinoline-2,4-dicarbonitrile], the inhibition at 6 µM on human RORγt LBD was determined as 100%. Also, the IC50 in experiment [2] (Homo sapiens, CD4+ T, 72 h) came out at 0.055 µM.

With `CCc1nc2ccc(C(O)(c3cnnn3C)C3CN(S(C)(=O)=O)C3)cc2c(Cl)c1Cc1ccc(C(F)(F)F)cc1` (single isomer, unassigned) [Example 91B, (4-Chloro-2-ethyl-3-(4-(trifluoromethyl)benzyl)quinolin-6-yl)(1-methyl-1H-1,2,3-triazol-5-yl)(1-(methylsulfonyl)azetidin-3-yl)methanol], the inhibition at 6 µM at human RORγt LBD stood at 97%. In addition, the IC50 in experiment [2] came out at 0.022 µM.

Regarding `COc1nc2ccc(C(O)(c3ccc(C)nc3C)c3cnnn3C)cc2c(Cl)c1Cc1ccc(C(F)(F)F)cc1` (single isomer, unassigned) [Example 77C, (4-chloro-2-methoxy-3-(4-(trifluoromethyl)benzyl)quinolin-6-yl)(2,6-dimethylpyridin-3-yl)(1-methyl-1H-1,2,3-triazol-5-yl)methanol], the “RORγt reporter Assay, % inhibition @ 6 μM” value on human RORγt LBD worked out at 100%. Moreover, the IC50 in experiment [2] was 0.0021 µM.

As to `COc1nc2ccc(C(O)(c3ccc(Cl)cc3)c3cncn3C)cc2c(Cl)c1Cc1ccc(-n2cncn2)cc1` (single isomer, unassigned) [Example 64C, (3-(4-(1H-1,2,4-triazol-1-yl)benzyl)-4-chloro-2-methoxyquinolin-6-yl)(4-chlorophenyl)(1-methyl-1H-imidazol-5-yl)methanol], at human RORγt LBD, the “RORγt reporter Assay, % inhibition @ 6 μM” value was found to be 94%. Also, the IC50 in experiment [2] (Homo sapiens, CD4+ T, 72 h) stood at 0.086 µM.

Regarding `Cn1cncc1C(O)(c1ccc(C(F)(F)F)nc1)c1ccc2nc(C#N)c(Cc3ccc(-n4cccn4)cc3)c(C#N)c2c1` (stereo not drawn) [Example 72B, 3-(4-(1H-Pyrazol-1-yl)benzyl)-6-(hydroxy(1-methyl-1H-imidazol-5-yl)(6-(trifluoromethyl)pyridin-3-yl)methyl)quinoline-2,4-dicarbonitrile], at human RORγt LBD, the inhibition at 6 µM came to 99%. The IC50 in experiment [2] (Homo sapiens, CD4+ T, 72 h) turned out to be 0.025 µM.

In the case of `COc1nc2ccc(C(O)(c3ccc(C)nc3C)c3cnnn3C)cc2c(C#N)c1Cc1ccc(C(F)(F)F)cc1` (single isomer, unassigned) [Example 78C, 6-((2,6-Dimethylpyridin-3-yl)(hydroxy)(1-methyl-1H-1,2,3-triazol-5-yl)methyl)-2-methoxy-3-(4-(trifluoromethyl)benzyl)quinoline-4-carbonitrile], at human RORγt LBD, the “RORγt reporter Assay, % inhibition @ 6 μM” value amounted to 99%. In addition, in experiment [2] (Homo sapiens, CD4+ T, 72 h), the IC50 is 0.004 µM.

Regarding `COc1nc2ccc(C(O)(c3ccc(C)nc3C)c3cnnn3C)cc2c(Cl)c1Cc1ccc(C(F)(F)F)cc1` (single isomer, unassigned) [Example 77B, (4-chloro-2-methoxy-3-(4-(trifluoromethyl)benzyl)quinolin-6-yl)(2,6-dimethylpyridin-3-yl)(1-methyl-1H-1,2,3-triazol-5-yl)methanol], at human RORγt LBD, the inhibition at 6 µM came to 98%. Further, the IC50 in experiment [2] amounted to 0.36 µM.
